Assays:
Assay in all cases: kinome screen (33PanQinase)
Format in all cases: biochemical
LIMK2 = molecular target: T1, LIMK2 (Homo sapiens, UniProt P53671)
T1 construct: purchased Reaction Biology Europe GmbH (formerly ProQinase)
Experimental: (§1) The Kinome Screening was performed by Reaction Biology Europe GmbH (http://reactionbiology.com; Freiburg i. Br., Germany).

CHK2 = molecular target: T2, CHK2 (Homo sapiens, UniProt O96017)
T2 construct: purchased Reaction Biology Europe GmbH (formerly ProQinase)
Experimental: as §1

PDGFRβ = molecular target: T3, PDGFRβ (Homo sapiens, UniProt P09619)
T3 construct: purchased Reaction Biology Europe GmbH (formerly ProQinase)
Experimental: as §1

GSK3β = molecular target: T4, GSK3β (Homo sapiens, UniProt P49841)
T4 construct: purchased Reaction Biology Europe GmbH (formerly ProQinase)
Experimental: as §1

MLK4 = molecular target: T5, MLK4 (Homo sapiens, UniProt Q5TCX8)
T5 construct: purchased Reaction Biology Europe GmbH (formerly ProQinase)
Experimental: as §1

SRPK1 = molecular target: T6, SRPK1 (Homo sapiens, UniProt Q96SB4)
T6 construct: purchased Reaction Biology Europe GmbH (formerly ProQinase)
Experimental: as §1

CDC42BPB = molecular target: T7, CDC42BPB (Homo sapiens, UniProt Q9Y5S2)
T7 construct: purchased Reaction Biology Europe GmbH (formerly ProQinase)
Experimental: as §1

NEK1 = molecular target: T8, NEK1 (Homo sapiens, UniProt Q96PY6)
T8 construct: purchased Reaction Biology Europe GmbH (formerly ProQinase)
T8 sequence (Q96PY6 1-1258): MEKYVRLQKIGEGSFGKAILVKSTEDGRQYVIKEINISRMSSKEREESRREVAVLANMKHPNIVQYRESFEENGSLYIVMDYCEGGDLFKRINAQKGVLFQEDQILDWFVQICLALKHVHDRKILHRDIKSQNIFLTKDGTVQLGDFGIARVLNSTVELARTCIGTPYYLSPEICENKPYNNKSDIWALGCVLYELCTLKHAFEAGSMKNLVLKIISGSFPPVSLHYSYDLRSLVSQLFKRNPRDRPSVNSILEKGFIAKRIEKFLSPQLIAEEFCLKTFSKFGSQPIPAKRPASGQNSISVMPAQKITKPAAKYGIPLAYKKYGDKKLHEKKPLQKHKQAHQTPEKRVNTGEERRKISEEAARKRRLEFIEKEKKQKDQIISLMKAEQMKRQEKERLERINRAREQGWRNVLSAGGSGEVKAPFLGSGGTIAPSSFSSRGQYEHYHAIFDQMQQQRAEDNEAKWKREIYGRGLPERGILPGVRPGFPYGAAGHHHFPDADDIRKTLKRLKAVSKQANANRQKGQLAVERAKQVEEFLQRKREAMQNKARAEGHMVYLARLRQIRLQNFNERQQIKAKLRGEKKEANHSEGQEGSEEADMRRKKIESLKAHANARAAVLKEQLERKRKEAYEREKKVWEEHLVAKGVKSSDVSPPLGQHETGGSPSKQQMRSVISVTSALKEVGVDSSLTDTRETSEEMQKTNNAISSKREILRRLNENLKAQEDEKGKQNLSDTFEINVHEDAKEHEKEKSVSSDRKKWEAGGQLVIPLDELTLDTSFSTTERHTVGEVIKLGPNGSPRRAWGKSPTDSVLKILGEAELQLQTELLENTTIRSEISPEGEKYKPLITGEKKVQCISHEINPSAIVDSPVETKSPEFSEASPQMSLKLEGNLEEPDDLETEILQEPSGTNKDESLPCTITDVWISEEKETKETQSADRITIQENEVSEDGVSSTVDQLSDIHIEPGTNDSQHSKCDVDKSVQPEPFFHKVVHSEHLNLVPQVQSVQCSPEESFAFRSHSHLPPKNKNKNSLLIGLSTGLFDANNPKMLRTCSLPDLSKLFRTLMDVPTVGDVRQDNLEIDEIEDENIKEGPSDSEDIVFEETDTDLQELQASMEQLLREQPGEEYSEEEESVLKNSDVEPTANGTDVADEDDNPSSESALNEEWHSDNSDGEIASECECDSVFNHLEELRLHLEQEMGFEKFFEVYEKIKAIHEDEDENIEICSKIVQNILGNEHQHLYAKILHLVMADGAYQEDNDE
Experimental: as §1

NIK = molecular target: T9, NIK (Homo sapiens, UniProt Q99558)
T9 construct: purchased Reaction Biology Europe GmbH (formerly ProQinase)
Experimental: as §1

NEK6 = molecular target: T10, NEK6 (Homo sapiens, UniProt Q9HC98)
T10 construct: purchased Reaction Biology Europe GmbH (formerly ProQinase)
Experimental: as §1

GRK2 = molecular target: T11, GRK2 (Homo sapiens, UniProt P25098)
T11 construct: purchased Reaction Biology Europe GmbH (formerly ProQinase)
T11 sequence (P25098 1-689): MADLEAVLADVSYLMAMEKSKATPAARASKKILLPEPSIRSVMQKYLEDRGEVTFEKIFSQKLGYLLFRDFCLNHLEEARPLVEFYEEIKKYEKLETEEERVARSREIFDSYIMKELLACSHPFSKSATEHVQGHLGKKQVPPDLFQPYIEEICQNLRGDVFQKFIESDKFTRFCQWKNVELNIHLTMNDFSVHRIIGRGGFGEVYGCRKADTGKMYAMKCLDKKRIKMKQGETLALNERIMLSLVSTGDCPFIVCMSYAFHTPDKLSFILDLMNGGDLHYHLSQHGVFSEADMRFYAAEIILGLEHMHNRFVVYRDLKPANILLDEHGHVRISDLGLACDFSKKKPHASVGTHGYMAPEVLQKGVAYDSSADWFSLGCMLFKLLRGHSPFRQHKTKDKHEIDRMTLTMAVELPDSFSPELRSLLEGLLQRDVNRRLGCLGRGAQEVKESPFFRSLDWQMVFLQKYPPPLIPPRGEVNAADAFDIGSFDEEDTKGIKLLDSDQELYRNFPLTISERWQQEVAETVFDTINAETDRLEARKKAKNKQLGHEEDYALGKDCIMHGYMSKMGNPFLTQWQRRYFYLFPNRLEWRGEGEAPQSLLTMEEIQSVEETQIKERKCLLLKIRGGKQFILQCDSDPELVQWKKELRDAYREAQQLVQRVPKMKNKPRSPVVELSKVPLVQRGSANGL
Experimental: as §1

T6 sequence (Q96SB4 whole entry): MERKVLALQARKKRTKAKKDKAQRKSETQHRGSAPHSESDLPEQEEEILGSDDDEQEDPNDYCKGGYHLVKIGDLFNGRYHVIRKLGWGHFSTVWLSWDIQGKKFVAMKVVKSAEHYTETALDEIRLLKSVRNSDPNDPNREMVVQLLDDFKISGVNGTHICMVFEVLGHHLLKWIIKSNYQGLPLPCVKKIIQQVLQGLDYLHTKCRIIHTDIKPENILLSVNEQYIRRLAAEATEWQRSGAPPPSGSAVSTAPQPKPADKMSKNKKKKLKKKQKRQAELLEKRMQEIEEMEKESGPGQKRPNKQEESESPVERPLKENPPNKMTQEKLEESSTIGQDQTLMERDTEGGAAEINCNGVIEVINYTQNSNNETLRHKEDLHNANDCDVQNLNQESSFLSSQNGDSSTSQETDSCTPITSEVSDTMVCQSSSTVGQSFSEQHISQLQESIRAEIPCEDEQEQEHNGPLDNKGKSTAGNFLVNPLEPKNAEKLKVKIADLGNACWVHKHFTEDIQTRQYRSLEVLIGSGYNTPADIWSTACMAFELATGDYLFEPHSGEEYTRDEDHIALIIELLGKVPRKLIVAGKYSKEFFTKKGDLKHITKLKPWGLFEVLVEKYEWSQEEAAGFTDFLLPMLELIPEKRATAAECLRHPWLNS
T4 sequence (P49841 whole entry): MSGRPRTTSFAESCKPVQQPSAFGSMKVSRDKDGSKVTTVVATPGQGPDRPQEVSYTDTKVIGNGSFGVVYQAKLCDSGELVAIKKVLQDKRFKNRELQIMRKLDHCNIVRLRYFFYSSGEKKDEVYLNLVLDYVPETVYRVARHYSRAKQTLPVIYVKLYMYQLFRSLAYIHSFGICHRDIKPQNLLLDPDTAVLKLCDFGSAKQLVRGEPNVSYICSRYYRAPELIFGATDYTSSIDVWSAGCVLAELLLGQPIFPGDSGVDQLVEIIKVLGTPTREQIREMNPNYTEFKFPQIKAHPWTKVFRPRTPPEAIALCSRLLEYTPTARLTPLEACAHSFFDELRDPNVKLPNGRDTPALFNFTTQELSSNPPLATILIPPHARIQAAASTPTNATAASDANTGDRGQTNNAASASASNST
T10 sequence (Q9HC98 whole entry): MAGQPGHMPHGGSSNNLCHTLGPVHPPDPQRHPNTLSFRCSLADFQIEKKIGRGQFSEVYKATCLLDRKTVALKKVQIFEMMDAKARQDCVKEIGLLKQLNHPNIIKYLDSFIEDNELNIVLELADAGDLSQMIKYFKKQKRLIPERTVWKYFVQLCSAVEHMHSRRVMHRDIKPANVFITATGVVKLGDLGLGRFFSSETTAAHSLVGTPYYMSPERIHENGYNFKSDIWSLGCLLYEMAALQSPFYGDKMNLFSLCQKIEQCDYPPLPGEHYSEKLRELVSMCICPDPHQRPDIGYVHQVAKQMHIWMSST
T1 sequence (P53671 whole entry): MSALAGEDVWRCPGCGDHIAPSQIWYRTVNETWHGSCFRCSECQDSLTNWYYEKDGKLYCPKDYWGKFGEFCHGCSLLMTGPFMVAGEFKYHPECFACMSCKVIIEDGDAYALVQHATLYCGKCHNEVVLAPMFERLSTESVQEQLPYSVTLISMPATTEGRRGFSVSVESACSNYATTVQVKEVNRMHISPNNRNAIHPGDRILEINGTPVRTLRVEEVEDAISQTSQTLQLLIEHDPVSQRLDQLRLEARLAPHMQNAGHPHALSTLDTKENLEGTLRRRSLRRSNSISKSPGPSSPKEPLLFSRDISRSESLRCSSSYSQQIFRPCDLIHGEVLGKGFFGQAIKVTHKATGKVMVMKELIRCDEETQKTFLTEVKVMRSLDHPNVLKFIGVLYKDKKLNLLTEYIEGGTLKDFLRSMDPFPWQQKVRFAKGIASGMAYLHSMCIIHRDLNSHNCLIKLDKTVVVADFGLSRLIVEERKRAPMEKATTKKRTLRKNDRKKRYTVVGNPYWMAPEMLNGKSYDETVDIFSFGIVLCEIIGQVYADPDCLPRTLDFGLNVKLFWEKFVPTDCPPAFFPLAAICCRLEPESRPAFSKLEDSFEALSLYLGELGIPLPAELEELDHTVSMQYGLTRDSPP
T7 sequence (Q9Y5S2 whole entry): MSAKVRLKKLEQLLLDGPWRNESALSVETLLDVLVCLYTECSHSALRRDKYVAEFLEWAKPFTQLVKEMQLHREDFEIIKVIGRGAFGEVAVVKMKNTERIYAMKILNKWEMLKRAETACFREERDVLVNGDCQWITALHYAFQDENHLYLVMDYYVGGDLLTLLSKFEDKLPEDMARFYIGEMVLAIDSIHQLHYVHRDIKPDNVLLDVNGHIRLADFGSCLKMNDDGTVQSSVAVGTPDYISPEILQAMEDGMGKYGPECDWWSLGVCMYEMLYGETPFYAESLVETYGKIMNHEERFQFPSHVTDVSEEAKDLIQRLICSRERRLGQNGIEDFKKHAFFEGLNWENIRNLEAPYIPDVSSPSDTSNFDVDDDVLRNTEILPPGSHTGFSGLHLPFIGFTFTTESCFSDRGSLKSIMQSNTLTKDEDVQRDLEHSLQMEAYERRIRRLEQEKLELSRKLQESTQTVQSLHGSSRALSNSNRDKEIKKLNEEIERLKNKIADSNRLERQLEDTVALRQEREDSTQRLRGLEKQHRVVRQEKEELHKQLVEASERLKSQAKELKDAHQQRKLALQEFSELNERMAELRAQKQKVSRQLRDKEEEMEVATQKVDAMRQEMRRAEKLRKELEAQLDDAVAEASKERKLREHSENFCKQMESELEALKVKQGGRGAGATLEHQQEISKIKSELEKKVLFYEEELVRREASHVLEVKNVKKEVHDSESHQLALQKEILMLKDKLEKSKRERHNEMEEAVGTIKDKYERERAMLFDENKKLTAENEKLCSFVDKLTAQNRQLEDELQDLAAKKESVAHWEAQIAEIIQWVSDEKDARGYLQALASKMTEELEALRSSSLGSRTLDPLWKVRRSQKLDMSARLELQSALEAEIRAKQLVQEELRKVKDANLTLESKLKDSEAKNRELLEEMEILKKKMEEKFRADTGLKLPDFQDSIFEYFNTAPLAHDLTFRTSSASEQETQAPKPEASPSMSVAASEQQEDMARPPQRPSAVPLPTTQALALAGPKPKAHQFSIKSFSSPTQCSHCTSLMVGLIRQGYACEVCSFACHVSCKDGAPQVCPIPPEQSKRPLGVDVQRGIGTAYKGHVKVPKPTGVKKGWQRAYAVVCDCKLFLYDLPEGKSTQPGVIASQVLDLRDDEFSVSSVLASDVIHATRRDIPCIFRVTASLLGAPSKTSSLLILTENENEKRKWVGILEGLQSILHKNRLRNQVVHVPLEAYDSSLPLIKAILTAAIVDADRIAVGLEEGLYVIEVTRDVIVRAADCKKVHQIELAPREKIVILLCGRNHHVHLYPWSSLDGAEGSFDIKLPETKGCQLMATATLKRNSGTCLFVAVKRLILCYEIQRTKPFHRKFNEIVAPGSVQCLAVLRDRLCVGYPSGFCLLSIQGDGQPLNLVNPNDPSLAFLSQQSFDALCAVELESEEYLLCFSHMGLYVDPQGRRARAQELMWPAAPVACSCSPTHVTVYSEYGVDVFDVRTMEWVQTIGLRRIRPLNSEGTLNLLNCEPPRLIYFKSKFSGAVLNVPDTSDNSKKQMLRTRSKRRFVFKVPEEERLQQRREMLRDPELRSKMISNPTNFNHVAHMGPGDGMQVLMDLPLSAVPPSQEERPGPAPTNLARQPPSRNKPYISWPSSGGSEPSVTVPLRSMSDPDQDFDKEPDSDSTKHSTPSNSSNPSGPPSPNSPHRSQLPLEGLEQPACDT
T2 sequence (O96017 whole entry): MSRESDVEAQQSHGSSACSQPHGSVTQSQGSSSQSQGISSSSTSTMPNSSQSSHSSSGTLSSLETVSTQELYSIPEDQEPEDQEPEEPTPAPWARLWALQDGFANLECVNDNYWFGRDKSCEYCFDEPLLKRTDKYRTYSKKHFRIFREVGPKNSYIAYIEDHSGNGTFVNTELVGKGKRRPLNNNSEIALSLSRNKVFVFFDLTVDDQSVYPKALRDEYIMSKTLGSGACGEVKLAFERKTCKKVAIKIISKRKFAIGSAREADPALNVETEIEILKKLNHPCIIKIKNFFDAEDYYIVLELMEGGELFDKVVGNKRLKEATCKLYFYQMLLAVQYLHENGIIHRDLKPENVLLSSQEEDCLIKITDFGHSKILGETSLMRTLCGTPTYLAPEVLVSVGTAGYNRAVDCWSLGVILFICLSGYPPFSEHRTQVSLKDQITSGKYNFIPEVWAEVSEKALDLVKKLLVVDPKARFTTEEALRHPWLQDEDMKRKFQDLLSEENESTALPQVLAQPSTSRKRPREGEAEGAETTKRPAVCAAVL

SMILES	residual kinase activity (LIMK2; 0.3 µM)	residual kinase activity (CHK2; 0.3 µM)	residual kinase activity (PDGFRβ; 0.3 µM)	residual kinase activity (GSK3β; 0.3 µM)	residual kinase activity (MLK4; 0.3 µM)	residual kinase activity (SRPK1; 0.3 µM)	residual kinase activity (CDC42BPB; 0.3 µM)	residual kinase activity (NEK1; 0.3 µM)	residual kinase activity (NIK; 0.3 µM)	residual kinase activity (NEK6; 0.3 µM)	residual kinase activity (GRK2; 0.3 µM)	further results
COc1ccnc2[nH]cc(-c3cc(N)nc(N)c3)c12 [meriolin 16]	101 % of control	82 % of control	75 % of control	66 % of control	75 % of control	99 % of control	2 % of control	67 % of control	79 % of control	104 % of control	106 % of control	residual kinase activity (LIMK2; 0.03 µM): 106 % of control; residual kinase activity (CHK2; 0.03 µM): 90 % of control; residual kinase activity (PDGFRβ; 0.03 µM): 93 % of control; residual kinase activity (GSK3β; 0.03 µM): 80 % of control; residual kinase activity (MLK4; 0.03 µM): 105 % of control; residual kinase activity (SRPK1; 0.03 µM): 108 % of control; residual kinase activity (CDC42BPB; 0.03 µM): 37 % of control; residual kinase activity (NEK1; 0.03 µM): 86 % of control; residual kinase activity (NIK; 0.03 µM): 94 % of control; residual kinase activity (NEK6; 0.03 µM): 107 % of control; residual kinase activity (GRK2; 0.03 µM): 96 % of control
c1ccc(CNc2cc(-c3c[nH]c4ncccc34)ccn2)cc1 [meriolin 36]	70 % of control	81 % of control	24 % of control	18 % of control	73 % of control	110 % of control	0 % of control	84 % of control	59 % of control	112 % of control	99 % of control	residual kinase activity (LIMK2; 3 µM): 27 % of control; residual kinase activity (CHK2; 3 µM): 41 % of control; residual kinase activity (PDGFRβ; 3 µM): 4 % of control; residual kinase activity (GSK3β; 3 µM): 2 % of control; residual kinase activity (MLK4; 3 µM): 40 % of control; residual kinase activity (SRPK1; 3 µM): 70 % of control; residual kinase activity (CDC42BPB; 3 µM): 0 % of control; residual kinase activity (NEK1; 3 µM): 55 % of control; residual kinase activity (NIK; 3 µM): 33 % of control; residual kinase activity (NEK6; 3 µM): 108 % of control; residual kinase activity (GRK2; 3 µM): 51 % of control

— PMC11167047 (Cell Death Discovery, 2024)
